Experiments:
[1] = test system: Plutella xylostella; assay: whole plant or invertebrate; conditions: in Brassica rapa, 144 h, read-out: insecticidal efficacy (corrected mortality rate), activity level
Procedure: Insecticidal test on Plutella xylostella
Adults of P. xylostella were released onto Chinese cabbage seedlings and allowed to lay eggs thereon. […] After air-dried, the seedlings were kept in a thermostatic chamber at 25° C. […] This test was conducted in triplicate using 10 adults of P. xviostella per plot.
Corrected mortality rate (%)100×(Number of hatched larvae in a non-treatment plot-Number of hatched larvae in a treatment plot)/Number of hatched larvae in a non-treatment plot [Math. 3]

[2] = test system: Laodelphax striatelius; assay: whole plant or invertebrate; conditions: in Oryza sativa, 192 h, read-out: insecticidal efficacy (corrected mortality rate), activity level
Source text: Insecticidal test on Laodelphax striatelius
The sulfonamide group-containing condensed heterocyclic compounds represented by the general formula (1) of the present invention or salts thereof were separately dispersed in water and diluted to 500 ppm. Rice plant seedlings (variety: Nihonbare) were dipped in the agrochenrical dispersions for 30 seconds. After air-dried, each seedling was put into a separate glass test tube and inoculated with ten 3rd-instar larvae of L, striatellus, and then the glass test tubes were capped with cotton plugs. At 8 days after the inoculation, the numbers of surviving larvae and dead larvae were counted to determine the survival rate, the corrected mortality rate was calculated according to the formula shown below, and the insecticidal efficacy was evaluated according to the criteria shown below.

CN(C)S(=O)(=O)c1cc(C2CC2)cnc1-c1nc2cc(SC(F)(F)F)ccc2o1 [Compound 4-6, 5-cyclopropyl-N,N-dimethyl-2-(5-trifluoromethylthiobenzoxazol-2-yl)pyridine-3-sulfonamide]
mortality at 500 ppm [1]: 100% | mortality at 500 ppm [2]: 100%

— patent US20240199600A1, “CONDENSED HETEROCYCLIC COMPOUND HAVING A SULFONAMIDE GROUP OR SALT THEREOF, AGRICULTURAL OR HORTICULTURAL INSECTICIDE OR ANIMAL ECTOPARASITE OR ENDOPARASITE CONTROL AGENT COMPRISING THE COMPOUND OR THE SALT THEREOF, AND METHOD FOR USING THE COMPOUND OR THE SALT THEREOF, THE INSECTICIDE, OR THE …” (NIHON NOHYAKU CO., LTD., priority 2021, published 2024)
